What was measured:
[1] = test system: WT and Ctr1−/− MEFs; assay: Platinum-DNA adduct formation (immunofluorescence) in MEFs; format: cell-based, mouse; conditions: WT compared to Ctr1−/− cells, particularly following hyperthermia; 50 μg/mL cisplatin; FIG. 4
Procedure: (§1) Bladder cell lines (5637, J82, RT4, MB49, MBT2, and NBT2) were kindly provided by Brant A. Inman, MD. J82, NBT2, MB49, and MBT2 cells were cultured in Dulbecco's modified Eagle's medium (DMEM) containing 10% fetal bovine serum (FBS) and 1% antibiotic-antimycotic (AA; Invitrogen). RT4 and 5637 cells were cultured in McCoy's 5A modified medium and RPMI-1640 medium, respectively, containing 10% FBS and 1% AA. The WT and Ctr1−/− MEF cell lines as well as the Ctr1 antibody were kindly provided by Dennis J. Thiele, PhD. MEF cells were cultured in DMEM containing 20% FBS, 1% L-Glutamine-Penicillin-Streptomycin (Sigma), 1% sodium pyruvate, 1% nonessential amino acids, 0.5 mg/L uridine (Sigma), and 55 μM 2-mercaptoethanol. All cells were maintained at 37° C. and at 5% CO2.
WT and Ctr1−/− MEFs were plated on coverslips (80,000-90,000 cells) in 6-well plates. Approximately 24-48 hours after plating, cells were treated with or without concurrent mild hyperthermia (42° C.) or normothermia (37° C.) and 50 μg/mL cisplatin (APP Pharmaceuticals; 50 mg/50 mL) for 1 hour. Following this initial 1 hour treatment, cells were incubated for 3 additional hours at 37° C. Following treatment, platinum-DNA adducts were stained using immunofluorescence. […] Cells were imaged using a Zeiss Axio Imager widefield fluorescence microscope (Carl Zeiss MicroImaging).

[2] = test system: WT and Ctr1−/− MEFs; assay: Cisplatin uptake/accumulation (intracellular platinum by ICP-AES) in MEFs; format: cell-based, mouse; conditions: cisplatin 100 μg/mL
Procedure: as §1
WT and Ctr1−/− MEFs were plated into T175 flasks and treated with concurrent hyperthermia (42° C.) or normothermia (37° C.) and cisplatin (100 μg/mL; APP Pharmaceuticals; 50 mg/50 mL) for 1 hour. Following this 1 hour incubation, cells were incubated with cisplatin for an additional hour at 37° C. Cells were then washed twice with PBS and harvested into 1 mL of 3N HCl and 10% TCA. Samples were digested at 70° C. for 18 hours and centrifuged at 20,800×g for 5 minutes. The supernatants were collected, and intracellular platinum accumulation was measured using inductively coupled plasma atomic emission spectroscopy (ICP-AES) at the EPA, Chapel Hill, N.C.

[3] = test system: WT and Ctr1−/− mouse embryonic fibroblasts (MEFs); assay: Clonogenic survival assay, sensitivity to cisplatin in WT and Ctr1−/− MEFs; format: cell-based; conditions: cisplatin 1, 5, or 10 μM for 2 hours, FIG. 2
Procedure: as §1
Basal Ctr1 protein expression was assessed using western blot in WT and Ctr1−/− mouse embryonic fibroblasts (MEFs). Sensitivity to cisplatin was assessed using a clonogenic survival assay. Briefly, a known density of cells was plated in 6-well plates. Approximately 18-24 hours after plating, cells were exposed to cisplatin (1, 5, or 10 μM; APP Pharmaceuticals; 50 mg/50 mL) or saline for 2 hours. […] Cells were incubated until colonies (50+ cells) were detected (7-14 days). Colonies were then stained using crystal violet and counted.

[4] = test system: bladder cancer cell lines (5637, J82, RT4, MB49, MBT2, NBT2); assay: Clonogenic survival assay, sensitivity to cisplatin in bladder cancer cell lines; format: cell-based, human and rodent; conditions: cells expressing higher basal levels of Ctr1 (5637 and MBT2) vs other lines; cisplatin 1, 5, 10, or 50 μM for 2 hours; FIG. 1
Procedure: as §1, with “All cells were maintained at 37° C. and at 5% CO2.” left out
Basal Ctr1 protein expression was assessed using Western blot in several different human (5637, J82, and RT4) and rodent (MB49, MBT2, and NBT2) bladder cancer cell lines. […] Samples were centrifuged at 12,000 rpm, and 100 μg of protein was separated using 4-20% SDS-PAGE, transferred to PVDF membrane and detected by chemiluminescence using anti-Ctr1 antibody (1:1000; kindly provided by Dennis J. Thiele, PhD) followed by anti-rabbit HRP antibody (1:2000; Bio-Rad). Sensitivity to cisplatin was assessed using a clonogenic survival assay. […] Cells were incubated until colonies (50+ cells) were detected (7-14 days). Colonies were then stained using crystal violet and counted.

[5] = test system: Ctr1; conditions: cells with Ctr1 deleted; Ishida et al. 2002, Larson et al. 2009; cited from earlier work

Structure (SMILES): N.N.[Cl][Pt][Cl] [cisplatin, cis-diamminedichloroplatinum (II)]
- Percentages of adduct-positive cells and adduct formation [1]: Higher
- Further increase in platinum uptake after hyperthermia ([2]; Ctr1−/− cells, hyperthermia 42° C. vs normothermia 37° C.): not observed
- Platinum levels (intracellular platinum accumulation) ([2]; WT cells compared to Ctr1−/− cells, with and without hyperthermia (42° C.), FIG. 3): Higher platinum levels
- Platinum uptake after hyperthermia ([2]; WT cells, hyperthermia 42° C. vs normothermia 37° C.): further increase
- Sensitivity to cisplatin (clonogenic survival) ([3]; Ctr1−/− MEFs (do not express Ctr1)): more resistant
- Sensitivity to cisplatin (clonogenic survival) ([3]; WT MEFs (higher basal Ctr1)): more sensitive
- Sensitivity to cisplatin (clonogenic survival) [4]: more sensitive
- Cisplatin resistance [5]: increased
- Cisplatin uptake [5]: decreased

Reference: patent publication US20110287110A1, “COMBINATION CANCER TREATMENT” (priority 2010, published 2011)
